Molecular target: T1, Soluble epoxide hydrolases (human recombinant) (Homo sapiens, UniProt P34913)
T1 construct: purchased Cayman (Ann Arbor, MI, USA) 10011669
T1 sequence (P34913 1-555): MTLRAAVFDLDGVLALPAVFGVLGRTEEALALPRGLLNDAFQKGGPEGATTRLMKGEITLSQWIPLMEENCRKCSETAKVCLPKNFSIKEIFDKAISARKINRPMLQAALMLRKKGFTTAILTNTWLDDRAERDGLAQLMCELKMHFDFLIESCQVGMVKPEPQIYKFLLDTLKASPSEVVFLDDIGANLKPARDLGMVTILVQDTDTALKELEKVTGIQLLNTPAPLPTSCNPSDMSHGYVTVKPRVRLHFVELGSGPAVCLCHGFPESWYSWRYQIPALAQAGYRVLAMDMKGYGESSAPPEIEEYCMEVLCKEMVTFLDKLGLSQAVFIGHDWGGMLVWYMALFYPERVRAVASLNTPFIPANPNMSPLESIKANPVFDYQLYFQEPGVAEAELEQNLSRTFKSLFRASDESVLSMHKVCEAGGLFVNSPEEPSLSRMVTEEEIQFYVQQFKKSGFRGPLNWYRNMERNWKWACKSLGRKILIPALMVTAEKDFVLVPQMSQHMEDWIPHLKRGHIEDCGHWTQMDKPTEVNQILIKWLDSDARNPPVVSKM
Test: biochemical
Details: 100 μM; PHOME substrate; triplicate; read-out: Inhibitory Rate at 100 μM (%) sEH
Method: To evaluate the binding mode between sEH and the inhibitors, a kinetic study was performed using various inhibitors and substrate concentrations.
NMR spectra was obtained on Bruker Advance 600 and 300 MHz (Bruker; Rheinstetten, Germany) spectrometer. Column chromatography was performed using silica gel (Kieselgel 60; 70–230; and 230–400 mesh; Merck; Darmstadt, Germany) and YMC RP-18 resins. Thin layer chromatography (TLC) was performed using pre-coated silica-gel 60 F254 and RP-18 F254S plates (both 0.25 mm; Merck; Darmstadt, Germany). Spots were visualized by spraying with 10% aqueous H2SO4 solution followed by heating. Methanol; acetonitrile (Sigma-Aldrich; St. Louis, MO, USA) and trifluoroacetic acid (Alfa Aesar; Ward Hill, MA, USA) used in this study were of HPLC grade and the distilled water was prepared by the ultra-pure water manufacturing device (Optimos; Sinhan Science Tech, Daejeon, Korea). […] The quantitative analysis for three selaginellins was carried out on Optimapak C18 (250 mm × 4.6 mm I.D.; 5 μm) column.

Compound	inhibition at 100 µM
O=C1C=CC(=C(c2ccc(O)cc2)c2c(C#Cc3ccc(O)cc3)cccc2-c2ccc(O)cc2)C=C1 [Compound 1, selaginellin A]	92.5 ± 0.8%
O=C1C=CC(=C(c2ccc(O)cc2)c2c(-c3ccc(O)cc3)ccc(CO)c2C#Cc2ccc(O)cc2)C=C1 [Compound 3, selaginellin]	94.5 ± 5%
Cc1ccc(-c2ccc(O)cc2)c(C(=C2C=CC(=O)C=C2)c2ccc(O)cc2)c1C#Cc1ccc(O)cc1 [Compound 2, selaginellin B]	89.3 ± 2.1%

Same assay, conditions: PHOME hydrolysis, pH 7.0, 37 °C; triplicate; read-out: sEH IC50

Compound	IC50
O=C1C=CC(=C(c2ccc(O)cc2)c2c(C#Cc3ccc(O)cc3)cccc2-c2ccc(O)cc2)C=C1 [Compound 1, selaginellin A]	3.1 ± 0.1 µM
O=C1C=CC(=C(c2ccc(O)cc2)c2c(-c3ccc(O)cc3)ccc(CO)c2C#Cc2ccc(O)cc2)C=C1 [Compound 3, selaginellin]	4.2 ± 0.2 µM
Cc1ccc(-c2ccc(O)cc2)c(C(=C2C=CC(=O)C=C2)c2ccc(O)cc2)c1C#Cc1ccc(O)cc1 [Compound 2, selaginellin B]	8.2 ± 2.2 µM

System: tyrosinase
Test: Tyrosinase inhibition
Format: biochemical
Details: triplicate

Compound	Inhibitory Rate at 100 μM (%) Tyrosinase
O=C1C=CC(=C(c2ccc(O)cc2)c2c(C#Cc3ccc(O)cc3)cccc2-c2ccc(O)cc2)C=C1 [Compound 1, selaginellin A]	36.2 ± 2.1%
O=C1C=CC(=C(c2ccc(O)cc2)c2c(-c3ccc(O)cc3)ccc(CO)c2C#Cc2ccc(O)cc2)C=C1 [Compound 3, selaginellin]	40.1 ± 3.2%
Cc1ccc(-c2ccc(O)cc2)c(C(=C2C=CC(=O)C=C2)c2ccc(O)cc2)c1C#Cc1ccc(O)cc1 [Compound 2, selaginellin B]	32.5 ± 1.5%

Molecular target: T2, sEH (Homo sapiens, UniProt P34913)
T2 construct: purchased Cayman (Ann Arbor, MI, USA) 10011669
T2 sequence (P34913 1-555): T1 sequence (P34913 1-555)
Test: sEH kinetic analysis (Lineweaver-Burk, secondary plot)
Format: biochemical
Details: Lineweaver-Burk plots
Method: To evaluate the inhibitory activity of compounds 1–3 on sEH, their hydrolysis effects on the formation of 6-methoxy-2-naphthaldehyde from (3-phenyl-oxiranyl)-acetic acid cyano-(6-methoxy-naphthalen-2-yl)-methyl ester (PHOME) were evaluated by fluorometric determination using an excitation wavelength of 330 nm and emission wavelength of 465 nm. […]. To evaluate the binding mode between sEH and the inhibitors, a kinetic study was performed using various inhibitors and substrate concentrations.
Secondary plots can be constructed from (3) Slope=km/Vmax+Km[I]/VmaxKi

Compound	sEH inhibition type
O=C1C=CC(=C(c2ccc(O)cc2)c2c(C#Cc3ccc(O)cc3)cccc2-c2ccc(O)cc2)C=C1 [Compound 1, selaginellin A]	Noncompetitive
O=C1C=CC(=C(c2ccc(O)cc2)c2c(-c3ccc(O)cc3)ccc(CO)c2C#Cc2ccc(O)cc2)C=C1 [Compound 3, selaginellin]	Noncompetitive
Cc1ccc(-c2ccc(O)cc2)c(C(=C2C=CC(=O)C=C2)c2ccc(O)cc2)c1C#Cc1ccc(O)cc1 [Compound 2, selaginellin B]	Noncompetitive

Same assay, conditions: secondary re-plot of slope vs [I], Equation (3)

Compound	Ki
O=C1C=CC(=C(c2ccc(O)cc2)c2c(C#Cc3ccc(O)cc3)cccc2-c2ccc(O)cc2)C=C1 [Compound 1, selaginellin A]	2.9 µM
O=C1C=CC(=C(c2ccc(O)cc2)c2c(-c3ccc(O)cc3)ccc(CO)c2C#Cc2ccc(O)cc2)C=C1 [Compound 3, selaginellin]	1.8 µM
Cc1ccc(-c2ccc(O)cc2)c(C(=C2C=CC(=O)C=C2)c2ccc(O)cc2)c1C#Cc1ccc(O)cc1 [Compound 2, selaginellin B]	6.8 µM

Source: publication PMC6331899, “Soluble Epoxide Hydrolase Inhibitory Activity of Selaginellin Derivatives from Selaginella tamariscina” (Molecules, 2015)
